Measured values as given in EP4014973B1, “INHALED LIQUID FOR THE TREATMENT OF RESPIRATORY INFECTIONS IN HUMANS CAUSED BY PATHOGENS RESISTANT TO ANTIBIOTICS” (Conick Biotech LLC, priority 2020, dated 2022).
Where two headings read alike, the source gives them in different places.

Columns and labels:
Pasteurella = assay: In vitro comparative zone diameter test on Müller-Hinton-Agar; type: cell-based; settings: amount used: novel compound 0.05 mL, Cephalosporin 0.1 mL, Ampicillin 0.2 mL
Cryptococcus = assay: as above; type: cell-based; settings: amount used: novel compound 0.05 mL, Cephalosporin 0.1 mL, Ampicillin 0.2 mL
Campylobacter = assay: as above; type: cell-based; settings: amount used: novel compound 0.05 mL, Cephalosporin 0.1 mL, Ampicillin 0.2 mL
Microsporidia = assay: as above; type: cell-based; settings: amount used: novel compound 0.05 mL, Cephalosporin 0.1 mL, Ampicillin 0.2 mL
Histoplasma capsulatum = type: cell-based; settings: Müller-Hinton-Agar, amount used: novel compound 0.05 mL, Cephalosporin 0.1 mL, Ampicillin 0.2 mL
Micrococcus = assay: In vitro comparative zone diameter test on Müller-Hinton-Agar; type: cell-based; settings: amount used: novel compound 0.05 mL, Cephalosporin 0.1 mL, Ampicillin 0.2 mL
Candida = assay: as above; type: cell-based; settings: amount used: novel compound 0.05 mL, Cephalosporin 0.1 mL, Ampicillin 0.2 mL
mice [1] = settings: p.o., 2,000 µL / kg
rats [2] = settings: p.o., 2,250 µL / kg
mice [3] = system: mice
rats [4] = system: rats
humans = assay: Clinical pilot study of side effects after inhalation; settings: 80 humans
[5] = inhalatory application, 2,250 µL / kg
[6] = inhalatory application, after 14 days
[7] = inhalatory application, 2,500 µL / kg
[8] = inhalation, 10ml 2% / 30 kg every 8 hours for seven (7) days

CC1(C)S[C@@H]2[C@H](NC(=O)[C@H](N)c3ccccc3)C(=O)N2[C@H]1C(=O)O [Ampicilin, Ampicillin]
R (evaluation of the results by zone diameter) (Pasteurella): MS (5 - 9 mm: moderately sensitive: MS) | zone diameter (Pasteurella): 5 mm | R (evaluation of the results by zone diameter) (Cryptococcus): R (0mm - 4mm: resistant: R) | zone diameter (Cryptococcus): 0 mm | R (evaluation of the results by zone diameter) (Campylobacter): MS (5 - 9 mm: moderately sensitive: MS) | zone diameter (Campylobacter): 7 mm | R (evaluation of the results by zone diameter) (Microsporidia): R (0mm - 4mm: resistant: R) | zone diameter (Microsporidia): 3 mm | R (evaluation of the results by zone diameter) (Histoplasma capsulatum): R (0mm - 4mm: resistant: R) | zone diameter (Histoplasma capsulatum): 2 mm | R (evaluation of the results by zone diameter) (Micrococcus): R (0mm - 4mm: resistant: R) | zone diameter (Micrococcus): 0 mm | R (evaluation of the results by zone diameter) (Candida): R (0mm - 4mm: resistant: R) | zone diameter (Candida): 4 mm

C=CCc1ccc(O)c(OC)c1.CCN(CC)CC(=O)Nc1c(C)cccc1C [Novel Compound, N-[N'-(carboxymethylenyl-2,6-dimethyl-aniline)-N,N-diethylammonium]-[2'-methoxy-4'-(2'-propenyl)]-phenolate.]
R (evaluation of the results by zone diameter) (Pasteurella): ES (21 mm and more: extremely sensitive: ES) | zone diameter (Pasteurella): 36 mm | R (evaluation of the results by zone diameter) (Cryptococcus): ES (21 mm and more: extremely sensitive: ES) | zone diameter (Cryptococcus): 31 mm | R (evaluation of the results by zone diameter) (Campylobacter): ES (21 mm and more: extremely sensitive: ES) | zone diameter (Campylobacter): 32 mm | R (evaluation of the results by zone diameter) (Microsporidia): ES (21 mm and more: extremely sensitive: ES) | zone diameter (Microsporidia): 30 mm | R (evaluation of the results by zone diameter) (Micrococcus): ES (21 mm and more: extremely sensitive: ES) | zone diameter (Micrococcus): 38 mm | R (evaluation of the results by zone diameter) (Candida): ES (21 mm and more: extremely sensitive: ES) | zone diameter (Candida): 33 mm | Breading and cardiac functions (mice [1]): regular | time after which discomfort symptoms disappeared (mice [1]): 1 to 3 min | mice that changed their behavior and demonstrated light discomfort (running, anxiety) (mice [1]; out of hundred (100)): 23 | Breading and cardiac functions (rats [2]): regular | time after which discomfort symptoms disappeared (rats [2]): 1 to 3 min | rats that changed their behavior and demonstrated light discomfort (running, anxiety) (rats [2]; out of hundred (100)): 37 | Breading and cardiac functions (mice [3]; [5]): regular | time after which discomfort symptoms disappeared (mice [3]; [5]): 3 to 5 min | mice that changed their behavior and demonstrated discomfort (running, anxiety) (mice [3]; inhalatory application, 2,250 µL / kg, out of hundred (100)): 21 | reexamination of the animals (mice [3]; [6]): no new irregularities were found | Breading and cardiac functions (rats [4]; [7]): regular | time after which discomfort symptoms disappeared (rats [4]; [7]): 5 to 6 min | rats that changed their behavior and demonstrated discomfort (running, anxiety) (rats [4]; inhalatory application, 2,500 µL / kg, out of hundred (100)): 29 | reexamination of the animals (rats [4]; [6]): no new irregularities were found | C Reactive Protein (CRP) measurements (humans; blood samples before the test, on the 4th and 8th day): no inflammation was developed | pulse frequency and blood pressure (humans; during the inhalation, 10ml 2% / 30 kg every 8 hours for seven (7) days): not significantly altered | Electrocardiography measurements (humans; during the intake, 10ml 2% / 30 kg every 8 hours for seven (7) days): regular without any pathological and irregular oscillations | coughing (humans; in the very beginning of the test): Sporadic coughing was recorded in some participants | bronchospasms (humans; [8]): No bronchospasms were recorded | dyspnea (humans; [8]): No dyspnea was recorded | respiratory function (humans; [8]): not disturbed
